Measurements published in US8012998B2, “Pyrrolidine aryl-ether as NK-3 receptor antagonists” (Hoffmann—LA Roche Inc., priority 2007, dated 2011).

target: T1, human NK3 receptor (Homo sapiens, UniProt P29371); experiment: [3H]SR142801 competition binding assay (hNK3 receptor binding); settings: [3H]SR142801 radioligand; membranes from HEK293 cells transiently expressing recombinant human NK3 receptor; Ki by Cheng-Prussoff; read-out: KiNK3 h
T1 construct: expressed in transfected cells; host or cells: HEK293 cells (transient expression), membrane preparation
T1 sequence (P29371 1-465): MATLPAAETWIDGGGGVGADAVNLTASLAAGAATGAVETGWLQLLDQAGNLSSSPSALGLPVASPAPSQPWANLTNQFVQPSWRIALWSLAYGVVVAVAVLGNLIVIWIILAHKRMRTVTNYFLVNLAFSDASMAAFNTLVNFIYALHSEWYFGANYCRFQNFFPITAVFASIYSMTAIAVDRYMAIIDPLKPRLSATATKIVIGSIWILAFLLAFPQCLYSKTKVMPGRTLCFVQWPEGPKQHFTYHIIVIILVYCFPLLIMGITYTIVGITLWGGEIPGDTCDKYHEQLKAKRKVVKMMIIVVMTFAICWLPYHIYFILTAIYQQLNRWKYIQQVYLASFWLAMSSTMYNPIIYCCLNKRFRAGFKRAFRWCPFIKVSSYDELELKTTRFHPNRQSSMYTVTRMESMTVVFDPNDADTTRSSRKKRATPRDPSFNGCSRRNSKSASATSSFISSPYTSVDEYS
Outline: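 Competition binding with [3H]SR142801 on membranes of HEK293 cells transiently expressing human NK3, 5 μg protein/well, in Tris-HCl/MnCl2/phosphoramidon/BSA buffer pH 7.4. Nonspecific binding defined with 10 μM SB222200; filtration then scintillation counting. IC50 from Hill fit was converted to Ki by Cheng-Prusoff; duplicate, mean ± SEM.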

| SMILES | Ki [nM] |
| --- | --- |
| C[C@H](Oc1ccc(C#N)cn1)[C@H]1CN(C(=O)c2ccc3[nH]cnc3c2)C[C@@H]1c1ccc(Cl)c(Cl)c1 (racemic) [Example 69, 6-{(SR)-1-[(3RS,4SR)-1-(1H-Benzoimidazole-5-carbonyl)-4-(3,4-dichloro-phenyl)-pyrrolidin-3-yl]-ethoxy}-nicotinonitrile] | 28.9 |
| C[C@@H](Oc1ccc(Cl)cn1)[C@@H]1CN(C(=O)c2ccc(CC#N)o2)C[C@H]1c1ccc(Cl)c(Cl)c1 (racemic) [Example 30, {5-[(3SR,4RS)-3-[(RS)-1-(5-Chloro-pyridin-2-yloxy)-ethyl]-4-(3,4-dichloro-phenyl)-pyrrolidine-1-carbonyl]-furan-2-yl}-acetonitrile] | 80 |
| Cc1cnc(C(=O)N2C[C@H]([C@H](C)Oc3ccc(C#N)cn3)[C@@H](c3ccc(Cl)c(Cl)c3)C2)cn1 (racemic) [Example 97, 6-{(SR)-1-[(3RS,4SR)-4-(3,4-Dichloro-phenyl)-1-(5-methyl-pyrazine-2-carbonyl)-pyrrolidin-3-yl]-ethoxy}-nicotinonitrile] | 67.5 |
| Cc1cc(C(=O)N2C[C@H]([C@H](C)Oc3ccc(C#N)cn3)[C@@H](c3ccc(F)c(F)c3)C2)c(C)nn1 [Example 114, 6-{(S)-1-[(3R,4S)-4-(3,4-Difluoro-phenyl)-1-(3,6-dimethyl-pyridazine-4-carbonyl)-pyrrolidin-3-yl]-ethoxy}-nicotinonitrile] | 85.4 |
| Cc1ncc(C(=O)N2C[C@H]([C@H](C)Oc3ccc(Cl)cn3)[C@@H](c3ccc(F)c(Cl)c3)C2)cn1 [Example 101, {(3S,4R)-3-(3-Chloro-4-fluoro-phenyl)-4-[(S)-1-(5-chloro-pyridin-2-yloxy)-ethyl]-pyrrolidin-1-yl}-(2-methyl-pyrimidin-5-yl)-methanone] | 46 |
| Cc1ccc(C(=O)N2C[C@@H]([C@@H](C)Oc3ccc(C(F)(F)F)cc3)[C@H](c3ccc(Cl)c(Cl)c3)C2)cn1 (racemic) [Example 6, {(3RS,4SR)-3-(3,4-Dichloro-phenyl)-4-[(RS)-1-(4-trifluoromethyl-phenoxy)-ethyl]-pyrrolidin-1-yl}-(6-methyl-pyridin-3-yl)-methanone] | 63.6 |
| Cc1ncc(C(=O)N2CC(C(C)Oc3ccc(Cl)cn3)[C@H](c3ccc(Cl)c(Cl)c3)C2)cn1 (stereo in doubt) [Example 41, [(3S,4R)-3-[(R)-1-(5-Chloro-pyridin-2-yloxy)-ethyl]-4-(3,4-dichloro-phenyl)-pyrrolidin-1-yl]-(2-methyl-pyrimidin-5-yl)-methanone] | 66.4 |
| Cc1nccn1-c1ccc(C(=O)N2C[C@H]([C@H](C)Oc3ccc(C#N)cn3)[C@@H](c3ccc(Cl)c(Cl)c3)C2)cc1 (racemic) [Example 64, 6-((SR)-1-{(3RS,4SR)-4-(3,4-Dichloro-phenyl)-1-[4-(2-methyl-imidazol-1-yl)-benzoyl]-pyrrolidin-3-yl}-ethoxy)-nicotinonitrile] | 35.7 |
| COc1ccc(C(=O)N2C[C@@H]([C@@H](C)Oc3ccc(C(F)(F)F)cc3)[C@H](c3ccc(Cl)c(Cl)c3)C2)cn1 (racemic) [Example 9, {(3RS,4SR)-3-(3,4-Dichloro-phenyl)-4-[(RS)-1-(4-trifluoromethyl-phenoxy)-ethyl]-pyrrolidin-1-yl}-(6-methoxy-pyridin-3-yl)-methanone] | 79.8 |
| COc1ncc(C(=O)N2C[C@@H]([C@@H](C)Oc3ccc(Cl)cn3)[C@H](c3ccc(Cl)c(Cl)c3)C2)cn1 (racemic) [Example 12, [(3SR,4RS)-3-[(RS)-1-(5-Chloro-pyridin-2-yloxy)-ethyl]-4-(3,4-dichloro-phenyl)-pyrrolidin-1-yl]-(2-methoxy-pyrimidin-5-yl)-methanone] | 19.4 |
| C[C@H](Oc1ccc(C#N)cn1)[C@H]1CN(C(=O)c2cncc(F)c2)C[C@@H]1c1ccc(Cl)c(Cl)c1 (racemic) [Example 74, 6-{(SR)-1-[(3RS,4SR)-4-(3,4-Dichloro-phenyl)-1-(5-fluoro-pyridine-3-carbonyl)-pyrrolidin-3-yl]-ethoxy}-nicotinonitrile] | 18.6 |
| C#Cc1ccc(O[C@@H](C)[C@H]2CN(C(=O)c3cnnc(C)c3)C[C@@H]2c2ccc(Cl)c(Cl)c2)nc1 (racemic) [Example 110, {(3SR,4RS)-3-(3,4-Dichloro-phenyl)-4-[(SR)-1-(5-ethynyl-pyridin-2-yloxy)-ethyl]-pyrrolidin-1-yl}-(6-methyl-pyridazin-4-yl)-methanone] | 17.7 |

These reach a lower Ki. Values come first.

| Ki [nM] | SMILES |
| --- | --- |
| 2.1 | C[C@H](Oc1ccc(C#N)cn1)[C@H]1CN(C(=O)c2ccc(-c3nnco3)cc2)C[C@@H]1c1ccc(Cl)c(Cl)c1 (racemic) [Example 63, 6-{(SR)-1[-(3RS,4SR)-4-(3,4-Dichloro-phenyl)-1-(4-[1,3,4]oxadiazol-2-yl-benzoyl)-pyrrolidin-3-yl]-ethoxy}-nicotinonitrile] |
| 6.8 | Cc1ncc(C(=O)N2CC(c3ccc(Cl)c(Cl)c3)[C@@H]([C@H](C)Oc3ccc(Cl)cn3)C2)cn1 (single isomer, unassigned) [Example 40] |
| 1.9 | C[C@@H](Oc1ccc(Cl)cn1)[C@@H]1CN(C(=O)c2ccc(CCN3CCCC3)nc2)C[C@H]1c1ccc(Cl)c(Cl)c1 (racemic) [Example 46, [(3SR,4RS)-3-[(RS)-1-(5-Chloro-pyridin-2-yloxy)-ethyl]-4-(3,4-dichloro-phenyl)-pyrrolidin-1-yl]-[6-(2-pyrrolidin-1-yl-ethyl)-pyridin-3-yl]-methanone] |
| 11.8 | Cc1ncc(C(=O)N2C[C@@H]([C@@H](C)Oc3ccc(Cl)cn3)[C@H](c3ccc(Cl)c(Cl)c3)C2)cn1 (racemic) [Example 17, [(3SR,4RS)-3-[(RS)-1-(5-Chloro-pyridin-2-yloxy)-ethyl]-4-(3,4-dichloro-phenyl)-pyrrolidin-1-yl]-(2-methyl-pyrimidin-5-yl)-methanone] |
| 5.8 | C[C@H](Oc1ccc(C#N)cn1)[C@H]1CN(C(=O)c2ccc(C#N)cc2F)C[C@@H]1c1ccc(Cl)c(Cl)c1 (racemic) [Example 67, 6-{(SR)-1-[(3RS,4SR)-1-(4-Cyano-2-fluoro-benzoyl)-4-(3,4-dichloro-phenyl)-pyrrolidin-3-yl]-ethoxy}-nicotinonitrile] |
| 14.7 | Cc1ccc(C(=O)N2C[C@H]([C@H](C)Oc3ccc(C#N)cn3)[C@@H](c3ccc(Cl)c(Cl)c3)C2)cn1 (racemic) [Example 68, 6-{(SR)-1-[(3RS,4SR)-4-(3,4-Dichloro-phenyl)-1-(6-methyl-pyridine-3-carbonyl)-pyrrolidin-3-yl]-ethoxy}-nicotinonitrile] |
| 5.8 | C[C@@H](Oc1ccc(Cl)cn1)[C@@H]1CN(C(=O)c2ccc(N(C)C)nc2)C[C@H]1c1ccc(Cl)c(Cl)c1 (racemic) [Example 19, [(3SR,4RS)-3-[(RS)-1-(5-Chloro-pyridin-2-yloxy)-ethyl]-4-(3,4-dichloro-phenyl)-pyrrolidin-1-yl]-(6-dimethylamino-pyridin-3-yl)-methanone] |
| 4.8 | C[C@H](Oc1ccc(C(F)(F)F)cn1)[C@H]1CN(C(=O)c2ccc(Cl)nc2)C[C@@H]1c1ccc(Cl)c(Cl)c1 (racemic) [Example 81, (6-Chloro-pyridin-3-yl)-{(3SR,4RS)-3-(3,4-dichloro-phenyl)-4-[(SR)-1-(5-trifluoromethyl-pyridin-2-yloxy)-ethyl]-pyrrolidin-1-yl}-methanone] |
| 2 | C[C@@H](Oc1ccc(Cl)cn1)[C@@H]1CN(C(=O)c2ccc(C#N)nc2)C[C@H]1c1ccc(Cl)c(Cl)c1 (racemic) [Example 35, 5-[(3SR,4RS)-3-[(RS)-1-(5-Chloro-pyridin-2-yloxy)-ethyl]-4-(3,4-dichloro-phenyl)-pyrrolidine-1-carbonyl]-pyridine-2-carbonitrile] |
| 3 | Cc1cc(C(=O)N2C[C@H]([C@H](C)Oc3ccc(C(F)(F)F)cn3)[C@@H](c3ccc(Cl)cc3)C2)cnn1 [Example 119, {(3S,4R)-3-(4-Chloro-phenyl)-4-[(S)-1-(5-trifluoromethyl-pyridin-2-yloxy)-ethyl]-pyrrolidin-1-yl}-(6-methyl-pyridazin-4-yl)-methanone] |
| 3.2 | C[C@H](Oc1ccc(C(F)(F)F)cn1)[C@H]1CN(C(=O)c2ccnc(Cl)c2)C[C@@H]1c1ccc(Cl)c(Cl)c1 (racemic) [Example 82, (2-Chloro-pyridin-4-yl)-{(3SR,4RS)-3-(3,4-dichloro-phenyl)-4-[(SR)-1-(5-trifluoromethyl-pyridin-2-yloxy)-ethyl]-pyrrolidin-1-yl}-methanone] |
| 2.6 | Cc1cc(C(=O)N2C[C@H]([C@H](C)Oc3ccc(Cl)cn3)[C@@H](c3ccc(Cl)c(F)c3)C2)cnn1 [Example 107, {(3S,4R)-3-(4-Chloro-3-fluoro-phenyl)-4-[(S)-1-(5-chloro-pyridin-2-yloxy)-ethyl]-pyrrolidin-1-yl}-(6-methyl-pyridazin-4-yl)-methanone] |
| 9.3 | C[C@@H](Oc1ccc(Cl)cn1)[C@@H]1CN(C(=O)c2ccc(CN(C)C)nc2)C[C@H]1c1ccc(Cl)c(Cl)c1 (racemic) [Example 39, [(3SR,4RS)-3-[(RS)-1-(5-Chloro-pyridin-2-yloxy)-ethyl]-4-(3,4-dichloro-phenyl)-pyrrolidin-1-yl]-(6-dimethylaminomethyl-pyridin-3-yl)-methanone] |
